Laboratory results reported in the supplement of paper PMC5908809.

Assays:
[1] = system: normal NK cells expanded with K562-aAPC; assay: drug sensitivity score (DSS) (DSS units); higher = more sensitive; extreme values may be limits of the assay; settings: 72 h; IL-2 2.5 ng/mL
Description: (§1)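 Drug sensitivity and resistance testing on K562-aAPC-expanded normal NK cells: 5 concentrations (10-fold steps over a 10,000-fold range), 72 h at 37 °C, viability by CellTiter-Glo normalised to DMSO and benzethonium chloride controls; DSS from the fitted curve.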

DERL-7 (IL-2 2.5 ng/mL) [2] = assay: as above; settings: 72 h
[3] = system: normal primary NK cells, pool 2 (3 donors) (IL-2 2.5 ng/mL); assay: as above; settings: 72 h
[4] = system: normal primary NK cells, pool 1 (3 donors), resting (IL-2 0 ng/mL); assay: as above; settings: 72 h
NKL (IL-2 2.5 ng/mL) [5] = assay: as above; settings: 72 h
SNK-6 (IL-2 2.5 ng/mL) [6] = assay: as above; settings: 72 h
KHYG-1 (IL-2 2.5 ng/mL) [7] = assay: as above; settings: 72 h
IMC-1 (IL-2 20 ng/mL) [8] = assay: as above; settings: 72 h
NK-92 (IL-2 2.5 ng/mL) [9] = assay: as above; settings: 72 h
KAI3 (IL-2 2.5 ng/mL) [10] = assay: as above; settings: 72 h
YT (IL-2 2.5 ng/mL) [11] = assay: as above; settings: 72 h
[12] = system: normal primary NK cells, pool 3 (3 donors) (IL-2 2.5 ng/mL); assay: as above; settings: 72 h
[13] = system: normal primary NK cells, pool 1 (3 donors) (IL-2 2.5 ng/mL); assay: as above; settings: 72 h
NK-YS (IL-2 2.5 ng/mL) [14] = assay: as above; settings: 72 h
DERL-7 (IL-2 2.5 ng/mL) [15] = assay: percent inhibition of viability; higher = more inhibition; settings: 72 h
[16] = system: normal primary NK cells, pool 2 (3 donors) (IL-2 2.5 ng/mL); assay: as above; settings: 72 h
[17] = system: normal primary NK cells, pool 1 (3 donors), resting (IL-2 0 ng/mL); assay: as above; settings: 72 h
NKL (IL-2 2.5 ng/mL) [18] = assay: as above; settings: 72 h
SNK-6 (IL-2 2.5 ng/mL) [19] = assay: as above; settings: 72 h
KHYG-1 (IL-2 2.5 ng/mL) [20] = assay: as above; settings: 72 h
IMC-1 (IL-2 20 ng/mL) [21] = assay: as above; settings: 72 h
NK-92 (IL-2 2.5 ng/mL) [22] = assay: as above; settings: 72 h
KAI3 (IL-2 2.5 ng/mL) [23] = assay: as above; settings: 72 h
YT (IL-2 2.5 ng/mL) [24] = assay: as above; settings: 72 h
[25] = system: normal primary NK cells, pool 3 (3 donors) (IL-2 2.5 ng/mL); assay: as above; settings: 72 h
[26] = system: normal primary NK cells, pool 1 (3 donors) (IL-2 2.5 ng/mL); assay: as above; settings: 72 h
NK-YS (IL-2 2.5 ng/mL) [27] = assay: as above; settings: 72 h
[28] = system: normal NK cells expanded with K562-aAPC; assay: as above; settings: 72 h, IL-2 2.5 ng/mL
Description: as §1

CCOc1cc2ncc(C#N)c(Nc3ccc(OCc4ccccn4)c(Cl)c3)c2cc1NC(=O)/C=C/CN(C)C [Neratinib] (max concentration tested 1000 nM)
Settings	drug sensitivity score
DERL-7 (IL-2 2.5 ng/mL) [2]	5.21
IMC-1 (IL-2 20 ng/mL) [8]	0
KAI3 (IL-2 2.5 ng/mL) [10]	2.59
KHYG-1 (IL-2 2.5 ng/mL) [7]	1.72
NK-92 (IL-2 2.5 ng/mL) [9]	4.28
NK-YS (IL-2 2.5 ng/mL) [14]	0.13
NKL (IL-2 2.5 ng/mL) [5]	3.24
SNK-6 (IL-2 2.5 ng/mL) [6]	0
YT (IL-2 2.5 ng/mL) [11]	0
[1]	4.02
[3]	1.38
[4]	3.36
[12]	0.26
[13]	1.29

percent inhibition of viability [%]
Settings	0.1 nM	1 nM	10 nM	100 nM	1000 nM
DERL-7 (IL-2 2.5 ng/mL) [15]	-7.68	3.12	6.29	8.45	68.9
IMC-1 (IL-2 20 ng/mL) [21]	-2.69	-1.05	1.8	4.28	1.07
KAI3 (IL-2 2.5 ng/mL) [23]	-4.25	-5.47	-6.36	0.65	48.1
KHYG-1 (IL-2 2.5 ng/mL) [20]	4.6	-0.87	25.1	2.37	22
NK-92 (IL-2 2.5 ng/mL) [22]	3.19	-13.2	7.23	7.67	55.4
NK-YS (IL-2 2.5 ng/mL) [27]	-2.05	-4.96	-1.85	-5.03	15.2
NKL (IL-2 2.5 ng/mL) [18]	-1.48	12.9	8.45	12.5	40.4
SNK-6 (IL-2 2.5 ng/mL) [19]	11	16.1	38.2	6.35	35.7
YT (IL-2 2.5 ng/mL) [24]	1.33	4.12	5.46	1.01	10.2
[16]	-8.13	-2.28	2.22	-1.98	33.3
[17]	-2.47	-22.5	-7.51	-6.96	70.1
[25]	-13.9	-5.37	-1.66	-10.9	18.9
[26]	-6.45	-7.28	-6.63	-9.14	36.2
[28]	-2.53	0.83	-1.65	8.19	50

Cn1cc(C2=Nc3cc(NC(=O)C(N)C4CCCCC4)cc4c3C2=CNNC4=O)cn1 (stereo not drawn) (max concentration tested 10000 nM)
Settings	drug sensitivity score
DERL-7 (IL-2 2.5 ng/mL) [2]	11.1
IMC-1 (IL-2 20 ng/mL) [8]	19.1
KAI3 (IL-2 2.5 ng/mL) [10]	19.7
KHYG-1 (IL-2 2.5 ng/mL) [7]	22.6
NK-92 (IL-2 2.5 ng/mL) [9]	14.7
NK-YS (IL-2 2.5 ng/mL) [14]	15.2
NKL (IL-2 2.5 ng/mL) [5]	11.7
SNK-6 (IL-2 2.5 ng/mL) [6]	18
YT (IL-2 2.5 ng/mL) [11]	15
[1]	11.4
[3]	6.1
[4]	0
[12]	6.18
[13]	2.92

percent inhibition of viability [%]
Settings	1 nM	10 nM	100 nM	1000 nM	10000 nM
DERL-7 (IL-2 2.5 ng/mL) [15]	-5.54	-1.5	4.6	48.3	97.6
IMC-1 (IL-2 20 ng/mL) [21]	-2.84	-1.7	7.25	99.8	101
KAI3 (IL-2 2.5 ng/mL) [23]	-1.93	-2.44	21.2	93	103
KHYG-1 (IL-2 2.5 ng/mL) [20]	18.4	5.75	32.3	104	107
NK-92 (IL-2 2.5 ng/mL) [22]	3.17	-3.7	17.4	65.2	107
NK-YS (IL-2 2.5 ng/mL) [27]	-0.41	0.42	9.21	75.4	97.2
NKL (IL-2 2.5 ng/mL) [18]	-1.81	2.84	-0.69	61.7	82.7
SNK-6 (IL-2 2.5 ng/mL) [19]	5.64	12.4	25.4	80.5	97.2
YT (IL-2 2.5 ng/mL) [24]	1.41	1.74	10.1	72.6	104
[16]	-14.2	-7.44	-6.63	8.32	85.8
[17]	1.23	-6.26	-15.6	-23.2	9.49
[25]	-13	-2.42	9.48	11.7	76.2
[26]	-1.65	-6.59	-10.1	-4.12	59.9
[28]	-1.76	0.06	11.6	53.4	73.3
